Data from US10639305B2, “Liquid preparation comprising pimobendan” (Boehringer Ingelheim Vetmedica GmbH, priority 2006, dated 2020).
Values after ≈ are worked out from the molar mass of the structure shown.

What was measured:
[1] = Saturated solubility of pimobendan at 10 to 40% (w/v) HPβCD at pH 3, 5 and 7; type: physicochemical; conditions: HPβCD 10 to 40% (w/v), pH 3, 5, 7, 25° C.
Protocol: Kleptose® HP (Roquette, France) was used as HPβCD of pharmaceutical grade. […] The solutions were buffered with a sodium phosphate solution. The sample solutions were prepared using the following method: • a) Approximately 3 ml of the solution under test was placed in a 7 ml glass vial with a magnetic stirring bar. • b) The pH was adjusted with hydrochloric acid • c) An excess of pimobendan was added.

physchem = type: physicochemical
Protocol: Saturated solubility of pimobendan was investigated at 20 to 25% (w/v) of HPβCD in 10 mM phosphate buffer pH 7.0. The study was carried out on three different batches of HPβCD and each solution tested in duplicate (see FIG. 3). The solutions were prepared using the following method: • a) Approximately 3 ml of the solution under test was placed in a 7 ml glass vial with a magnetic stirring bar. • b) An excess of pimobendan was added. The sample was placed in an ultrasonic bath and sonicated for 5 min. to ensure an excess of pimobendan was present and more added if required. • c) The samples were placed in a water bath at 25° C. and stirred for at least 16 hours. • d) The samples were filtered using 0.2 μm PVDF syringe filter. • e) The samples were assayed by HPLC.
An isotonic solution was required for the formulation. […] Sodium chloride was added to increase the osmolality to 303 mOsm/Kg. Saturated solubility of pimobendan 0.75 mg/ml at 24% (w/v) HPβCD were investigated and results were compared with those formulations that were not supplemented with sodium chloride.

[2] = cited from earlier work

solubility (physchem; 25 °C, pH 7, aqueous with cosolvent or surfactant or cyclodextrin, thermodynamic from solid, saturated solubility (amount of soluble pimobendan)): ~1230 µg/mL (≈ 3.68 mM)
saturated solubility (amount of soluble pimobendan) (physchem; pH 7): about 0.71 mg/ml
SMILES: COc1ccc(-c2nc3ccc(C4=NNC(=O)CC4C)cc3[nH]2)cc1 (stereo not shown) [pimobendan, 4,5-dihydro-6-[2-(4-methoxyphenyl)-1H-benzimidazol-5-yl]-5-methyl-3(2H)-pyridazinone]
solubility at a certain HPβCD concentration, compared between pH values [1]: lower at pH 7 than at pH 3, but higher than at pH 5
solubility at pH 7 [2]: about 0.1 mg per 100 ml
